The record followed here is ChEMBL document CHEMBL3351954, “Enhanced water-soluble derivative of PC407 as a novel potential COX-2 inhibitor injectable formulation” (Bioorg Med Chem Lett, 2014).

A short description of data set [1]: Toxicity in iv dosed Kun Ming mouse. Particulars: in vivo. In kind it is organism-based.
The target in data set [2] is T1, Prostaglandin G/H synthase 2 (Homo sapiens) (UniProt P35354).
T1 sequence (whole entry): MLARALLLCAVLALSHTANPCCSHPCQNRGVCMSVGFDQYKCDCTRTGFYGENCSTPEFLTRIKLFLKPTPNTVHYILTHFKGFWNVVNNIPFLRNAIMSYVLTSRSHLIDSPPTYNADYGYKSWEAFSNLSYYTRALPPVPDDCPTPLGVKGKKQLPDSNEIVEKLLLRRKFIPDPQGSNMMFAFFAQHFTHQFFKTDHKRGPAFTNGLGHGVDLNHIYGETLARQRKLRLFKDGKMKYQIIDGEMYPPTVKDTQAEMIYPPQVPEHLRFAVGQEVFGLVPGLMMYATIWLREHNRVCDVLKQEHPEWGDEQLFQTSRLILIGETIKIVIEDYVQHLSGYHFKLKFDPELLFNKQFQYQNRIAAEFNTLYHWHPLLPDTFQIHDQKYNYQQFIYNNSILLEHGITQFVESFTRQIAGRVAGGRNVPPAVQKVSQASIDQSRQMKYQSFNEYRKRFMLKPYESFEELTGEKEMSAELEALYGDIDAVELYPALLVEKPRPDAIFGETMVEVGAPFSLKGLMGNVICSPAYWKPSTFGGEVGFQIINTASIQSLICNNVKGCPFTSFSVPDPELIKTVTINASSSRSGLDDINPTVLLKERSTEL
Put plainly: Inhibition of recombinant COX-2 (unknown origin) at 10 uM.

The test system of data set [3] is Mus musculus. Put plainly: Analgesic activity in Kun Ming mouse model assessed as inhibition of acetic acid-induced visceral pain at 0.1 mmol/kg, iv administered 5 mins prior to acetic acid challenge measured after 15 mins by writhing assay relative to control. The data set is classed as functional. On the set-up: scale not given: the % may be the effect or the level left.

Data set [4] concerns Mus musculus. Kind of data set: Analgesic activity in Kun Ming mouse model assessed as inhibition of acetic acid-induced visceral pain at 0.1 mmol/kg, iv administered 5 mins prior to acetic acid challenge measured after 30 mins by writhing assay relative to control. In kind it is functional. On the set-up: scale not given: the % may be the effect or the level left.
Data set [5] relates to Plasma. Put plainly: Prodrug conversion in Sprague-Dawley rat plasma assessed as PC407 formation at 5 mg/kg, iv after 1.5 hrs. The data set is classed as ADME, organism-based. Details: dose 5 mg/kg, route intravenous. Particulars: in vivo.
A short description of data set [6]: Solubility of the compound in water at 25 degC by HPLC analysis. In kind it is physicochemical.
The target of data set [7] is Prostaglandin G/H synthase 1 (Homo sapiens) (UniProt P23219). Put plainly: Inhibition of recombinant COX-1 (unknown origin) at 10 uM.
Prostaglandin G/H synthase 1 (Homo sapiens), sequence (P23219 whole entry): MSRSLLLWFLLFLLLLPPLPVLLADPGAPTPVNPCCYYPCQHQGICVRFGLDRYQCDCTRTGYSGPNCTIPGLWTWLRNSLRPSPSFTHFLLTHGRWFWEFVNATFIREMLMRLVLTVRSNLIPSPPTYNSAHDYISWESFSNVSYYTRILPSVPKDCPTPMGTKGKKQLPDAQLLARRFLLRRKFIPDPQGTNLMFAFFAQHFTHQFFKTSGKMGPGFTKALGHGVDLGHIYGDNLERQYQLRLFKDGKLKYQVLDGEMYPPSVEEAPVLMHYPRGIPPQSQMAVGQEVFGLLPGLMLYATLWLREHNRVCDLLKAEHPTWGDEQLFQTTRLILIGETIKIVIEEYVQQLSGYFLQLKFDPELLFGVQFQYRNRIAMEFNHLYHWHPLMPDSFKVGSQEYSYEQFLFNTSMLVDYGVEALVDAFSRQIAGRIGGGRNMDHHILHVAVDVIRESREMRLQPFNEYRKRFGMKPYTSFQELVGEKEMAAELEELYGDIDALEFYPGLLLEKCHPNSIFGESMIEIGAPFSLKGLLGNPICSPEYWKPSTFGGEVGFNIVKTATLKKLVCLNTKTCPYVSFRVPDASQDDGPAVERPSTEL
The test system of data set [8] is Plasma. Put plainly: Drug level in Sprague-Dawley rat plasma treated with 5 mg/kg, iv after 10 mins to 4 hrs. The data set is classed as ADME, organism-based. Details: dose 5 mg/kg, route intravenous. Particulars: in vivo.
For data set [9], the target named is T1, Prostaglandin G/H synthase 2 (Homo sapiens). Kind of data set: Inhibition of recombinant COX-2 (unknown origin) at 0.1 uM.
Data set [10] has as its target Prostaglandin G/H synthase 1 (Homo sapiens) (UniProt P23219). Kind of data set: Inhibition of recombinant COX-1 (unknown origin) at 0.1 uM.

In brackets after ≈: the same amount, converted by molar mass. Activity calls are given as the source filed them. No cut-off for these calls is given here. A value given as a limit tells only on which side of the number the result lay.

In general, inhibition refers to the change of the read-out against control, counted positive when it falls. For orientation: solubility means the dissolved amount per volume that the medium holds. In data set [1], `O=C([O-])CCC(=O)[N-]S(=O)(=O)c1ccc(-n2nc(C(F)(F)F)cc2-c2ccc3ccccc3c2)cc1.[Na+].[Na+]` registered an MTD greater than 1500 mg/kg. Also, the inhibition entry in [2] and in data set [7] was “inactive” each time. Besides, the Activity in the data set with Mus musculus [3] is listed as 77%; with Mus musculus [4], 83%. In addition, the Drug metabolism entry with Plasma [5] is reported as “metabolite_detected”. This molecule came in with a solubility in data set [6] of 20.3 mg/mL.

For `NS(=O)(=O)c1ccc(-n2nc(C(F)(F)F)cc2-c2ccc3ccccc3c2)cc1`, the figures for the Activity in the data set with Mus musculus [3] and in the data set with Mus musculus [4] were 83% and 81%, respectively. Also, the Drug uptake result with Plasma [8] is given as “Active”. The inhibition in data set [9] worked out at 100%. In addition, in [10], the inhibition result was “inactive”. The same molecule came in with a solubility in data set [6] of 0.0016 mg/mL (≈ 3.83 µM).
